Here are results for one compound from patent US20200030259A1, “Antiestrogens and/or Aromatase Inhibitors for Use in Treating Obesity and Related Symptoms” (Repros Therapeutics Inc., priority 2016, published 2020).

Assay [1] has as its system obese men with acquired hypogonadotropic hypogonadism. As to the kind of experiment: Phase 2 clinical trial: morning testosterone. In kind it is in vivo, human. Conditions: p<0.0001, FIG. 1B.
Procedure: 50 adult male subjects are enrolled in the study with an average age of 43.3 (stdev 9.2), average BMI of 36.8 (stdev 3.2), average waist size of 46.9″ (stdev 4.1) and average body fat percentage of 38.1 (stdev 5.2). Average baseline testosterone levels in the subjects was 221.9 ng/dl (stdev 52.7), average estradiol level in the subjects was 48.1 μg/ml (stdev 14.8) and the average T:E ratio was 4.95 (stdev 1.7; normal range of T:E is 20-25). […] The subjects were provided a low calorie commercial diet for 6 months, gym membership for 15 month and access to a personal trainer for 6 months. Subjects were randomized to receive treatment with 12.5 mg enclomiphene/day, 25 mg enclomiphene/day or placebo via oral capsule over a three month period.
The test system is the same in assay [2]. As to the kind of experiment: Phase 2 clinical trial: lean mass by dual energy X-ray Absorptiometry (DXA). It is filed as in vivo, human. Conditions: placebo arm lost lean mass, FIG. 2A. An excerpt:
(§1) FIGS. 2A and 2B illustrate lean mass (as a percentage of total mass in kilograms, measured by dual energy X-ray Absorptiometry (DXA)) and total testosterone levels at baseline and at the 3 month and 6 month time points in the subjects described at FIGS. 1A and 1B.
(§2) A randomized double blind placebo-controlled Phase 2 clinical study (duration=6 months) was initiated to study the effects of trans-clomiphene on testosterone, metabolic function, weight, body composition, measures of strength and quality of life assessments (made throughout the study) in obese men with acquired hypogonadotropic hypogonadism.
(§3) 50 adult male subjects are enrolled in the study with an average age of 43.3 (stdev 9.2), average BMI of 36.8 (stdev 3.2), average waist size of 46.9″ (stdev 4.1) and average body fat percentage of 38.1 (stdev 5.2). Average baseline testosterone levels in the subjects was 221.9 ng/dl (stdev 52.7), average estradiol level in the subjects was […] (stdev 14.8) and the average T:E ratio was 4.95 (stdev 1.7; normal range of T:E is 20-25). The top four reported baseline symptoms (by % of enrollees) were (i) fatigue/lack of energy (96%) (ii) depression, irritability, lack of focus (74%) (iii) poor libido (60%) and (iv) muscle weakness (48%). The subjects were provided a low calorie commercial diet for 6 months, gym membership for […] and access to a personal trainer for 6 months. […]

The test system is the same in assay [3]. In words: Phase 2 clinical trial: free and total (LCMS) testosterone. In kind it is in vivo, human. Conditions: enclomiphene arms; FIG. 2B.
Source text: as §1, §2, §3

Assay [4] has the same test system. In words: Phase 2 clinical trial: DISF-SR, IWQOL and SF-36 total scores. In kind it is in vivo, human. Conditions: enclomiphene arms; 3 and 6 months; n=15 per group; FIG. 3.
Source text: FIG. 3 illustrates percent improvement from baseline total score at the 3 month and 6 month time points in subjects described at FIGS. 1A and 1B (n=15 per group) in the DISF-SR (Derogatis Interview for Sexual Functioning), IWQOL (Impact of Weight on Quality of Life questionnaire) and SF-36 (Medical Outcomes Study Short Form).
as §2
50 adult male subjects are enrolled in the study with an average age of 43.3 (stdev 9.2), average BMI of 36.8 (stdev 3.2), average waist size of 46.9″ (stdev 4.1) and average body fat percentage of 38.1 (stdev 5.2). Average baseline testosterone levels in the subjects was 221.9 ng/dl (stdev 52.7), average estradiol level in the subjects was […] (stdev 14.8) and the average T:E ratio was 4.95 (stdev 1.7; normal range of T:E is 20-25). The top four reported baseline symptoms (by % of enrollees) were (i) fatigue/lack of energy (96%) (ii) depression, irritability, lack of focus (74%) (iii) poor libido (60%) and (iv) muscle weakness (48%). The subjects were provided a low calorie commercial diet for 6 months, gym membership for […] and access to a personal trainer for 6 months. Subjects were randomized to receive treatment with 12.5 mg enclomiphene/day, 25 mg enclomiphene/day or placebo via oral capsule over a […] period.

Assay [5] has as its system subjects in need of treatment for obesity. In words: Treating obesity with an antiestrogen (Example 2). It is filed as in vivo. Conditions: 5 mg to 100 mg daily or every other day for at least three months. As to the method:
Subjects in need of treatment for obesity are administered an amount of an antiestrogen (e.g. trans-clomiphene or a salt or analogue thereof) in an amount effective to increase LH and FSH to therapeutic levels over a treatment period of sufficient duration to achieve the desired result, preferably for a period of at least 3 months during which an effective dose is administered daily or every other day. FSH and LH levels may be assessed prior to initiating treatment and then monitored through the course of treatment to ensure that therapeutic levels of the pituitary hormones are reached. By way of nonlimiting example, a subject with obesity is administered 5 mg to 100 mg trans-clomiphene daily or every other day for a treatment period of at least three months, preferably at least six months.

Take `CCN(CC)CCOc1ccc(/C(=C(/Cl)c2ccccc2)c2ccccc2)cc1` [enclomiphene, trans-clomiphene]: in assay [1] (12.5 mg enclomiphene/day oral capsule with weight loss regimen, baseline ~235 ng/dl), the “morning testosterone at six months” value was about 505 ng/dL. Also, the “morning testosterone at six months” value in assay [1] (25 mg enclomiphene/day oral capsule with weight loss regimen, baseline ~285 ng/dl) was about 605 ng/dL. Moreover, the “lean mass (percentage of total mass, DXA) at six months” value in assay [2] (12.5 mg enclomiphene arm) is “gained lean mass”. Further, in assay [2] (25 mg enclomiphene arm), the “lean mass (percentage of total mass, DXA) at six months” value was “gained lean mass”. Also, in assay [3], the “free testosterone, baseline to six month time point” value is given as “increases” and the “total (LCMS) testosterone, baseline to six month time point” value was “increases”. Besides, in assay [4], the “percent improvement relative to baseline in DISF-SR total score” value is recorded as “statistically significant from baseline”, the “percent improvement relative to baseline in IWQOL total score” value was “statistically significant from baseline” and the “percent improvement relative to baseline in SF-36 total score” value was “statistically significant from baseline”. In assay [5], the “symptoms of obesity during treatment” value is “reduction in one or more symptoms of obesity is observed”.
